Data on four compounds can be found in patent US5719135A, “Substituted 3-arylidene-7-azaoxindole compounds and process for their preparation” (Pharmacia S.p.A., priority 1994, dated 1998).

For one assay, the system named is K562 cells. Description: K562 Cell Growth Inhibition Assay. The assay is classed as cell-based. As to conditions: human chronic myeloid leukemia K562 cells, 72 h, 10000/well. As to the method:
K562 Cell Growth Inhibition Assay
K562 cells, a human myelogenous leukemia cell line, were seeded into a 24 wells tissue culture plate (Falcon 3047) (10000/well) in the presence of increasing concentrations of the compounds. After 72 h, cells were harvested and were counted using a cell counter (Coulter Counter-ZM). The percent of inhibition was evaluated in respect to the untreated control cells.
(§1) The inhibitory activity data for a representative group of compounds according to the present invention, obtained both in the in-vitro p45 v-abl kinase assay and in the […] human chronic myeloid leukemia K562 cell growth inhibition assay described above, are set out in the following Table I.

Assay [1] addresses p45 v-abl tyrosine kinase. Description: p45 v-abl Kinase Assay. The assay is classed as biochemical, Abelson murine leukemia virus. The note with it: in-vitro; (Val^5)-Angiotensin II peptide 2 mM, ATP 50 μM, pH 8.0, 30° C. The procedure: p45 v-abl Kinase Purification
The enzyme used in our tests was the p45 v-abl tyrosine kinase which represents the catalytic domain of the Abelson tyrosine kinase (isolated form the Abelson murine leukemia virus). The p45 v-abl kinase was produced and isolated as described by Wang at al. in J. Biol. Chem. 260, 64 (1985) and by Ferguson et al. in J. Biol. Chem. 260, 3652 (1985) and in Biochem. J. 257, 321 (1989).
(Val^5)-Angiotensin II phosphorylation was performed by incubation with 40 ng of purified abl-kinase and (γ^32 -p)ATP, in 50 μl of buffer containing Tris-Hcl 25 mM, pH 8.0. MgCl2 10 mM and dithiothreitol 0.1 mM (kinase buffer). The reaction mixture was incubated for the indicated time at 30° C. and the reaction stopped by adding 50 μl of 5% trichloroacetic acid. After a brief incubation on ice, tubes were centrifuged. The supernatants were spotted on phosphocellulose paper squares (Whatman P-81) and washed extensively in acetic acid. The radioactivity bound to dried phosphocellulose squares was measured in a liquid scintillation counter. IC50 values were calculated from triplicated determinations of each experimental point. Each inhibitor was tested at concentrations ranging from […] in the presence of fixed concentrations of peptide (2 mM) and ATP (50 μM.
as §1

Molecules are shown by their SMILES.

As for `O=C1Nc2ncccc2C1=Cc1c[nH]c2ncccc12` [3-[(7-azaindol-3-yl)methylene]-7-azaoxindole], the IC50 in the assay on K562 cells is 3.89 µM.

For `COc1ccc2[nH]cc(C=C3C(=O)Nc4ncccc43)c2c1` [3-[(5-methoxy-3-indolyl)methylene]-7-azaoxindole], the values for the IC50 (in assay [1]; in the assay with K562 cells) were 0.03 µM and 3.21 µM, respectively.

On to `Cc1[nH]c2ccccc2c1C=C1C(=O)Nc2ncccc21` [3-[(2-methyl-3-indolyl)methylene]-7-azaoxindole], for which the IC50 in assay [1] was 0.04 µM; with K562 cells, 2.61 µM.

Take `O=C1Nc2ncccc2C1=Cc1cc(O)c2c(c1O)CCCC2` [3-[(1,4-dihydroxy-5,6,7,8-tetrahydronaphth-2-yl)methylene]-7-azaoxindole]: the IC50 came to 2.14 µM in assay [1] and 2.36 µM in the assay with K562 cells.
